One experiment has as its target T1, GSPT1 protein (Homo sapiens, UniProt P15170+Q96SW2).
T1 construct: endogenous in cells; host or cells: Jeko-1
Description: Western blot detection of degradation activity of GSPT1 protein in Jeko-1 cells. In kind it is cell-based. The settings on record: JeKo-1, 24 h, read-out: GSPT1 degradation rate (%). Summed up:
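Jeko-1 cells in RPMI1640 with 20% FBS treated with compound or DMSO for 24 h at 37° C. GSPT1 detected in lysates by Western blot with GAPDH as internal reference. Band intensities quantified by gray-level analysis to calculate GSPT1 degradation rate.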

The subject of a further experiment is Jeko-1 cells. Description: CCK8 method, inhibition of Jeko-1 cell proliferation. Format: cell-based. The settings on record: Homo sapiens; Jeko-1, 72 hours; read-out: Cellular proliferation inhibition IC50. The protocol:
Test Example 3: CCK8 Method for Detecting Inhibition of Jeko-1 Cell Proliferation by Compound of Formula
Cell culture: The Jeko-1 cell line (human lymphoma cells) was cultured in RPMI-1640 complete medium containing […] and 1% penicillin streptomycin, and incubated in an incubator at 37° C., 5% CO2, and saturated humidity.
Cell laying: Jeko-1 cells in logarithmic growth phase was taken, centrifuged, and an appropriate amount of complete culture medium was added to obtain a single-cell suspension, a hemocytometer was used for cell counting, and a cell suspension of 1.5×10^5 cells/mL was prepared, the cells were inoculated into a 96 well culture plate at a rate of 100 μL cell suspension per well and incubated in a CO2 cell incubator for 24 hours.
CCK-8 detection: 72 hours after administration, 10% CCK-8 solution was added to each well, placed in a CO2 cell culture incubator, and incubated for 1-4 hours. The absorbance of each well was measured using a microplate reader at 450 nm.
Calculation of cellular proliferation inhibition rate:
Cellular proliferation inhibition rate (%)=[(Ac−As)/(Ac−Ab)]×100% • As: absorbance in experimental wells (including cells, culture medium, CCK-8 solution, and drug solution) • Ac: absorbance in control wells (including cells, culture medium, CCK-8 solution, without drugs) • Ab: absorbance in blank wells (including culture medium, CCK-8 solution, without cells or drugs)
Background: Tetrazolium assays rely on reduction of a dye to a coloured formazan, in cell work by metabolically active cells.

The test system of a further experiment is HL-60 cells. In words: CTG method, inhibition of HL-60 cell proliferation. In kind it is cell-based. The settings on record: Homo sapiens; HL-60, 72 hours; read-out: Cellular proliferation inhibition IC50. As for the experimental part:
(§1) Test Example 2: CTG Method for Detecting the Inhibitory Effect of Compounds of Formula on the Proliferation of HNT 34 or HL-60 Cells
(§2) HNT-34 or HL-60 cells were taken and cultured in RPMI1640 medium containing 20% fetal bovine serum. The cells were inoculated on a 96 well plate, with 1×10^4 cells per well, and incubated at 37° C. in a […] incubator. After adding the test compound, it was incubated for 72 hours. Then an appropriate amount of CTG reagent was added, the luminescence value was measured, and the inhibition rate was calculated.

The subject of another experiment is HNT-34 cells. In words: CTG method, inhibition of HNT-34 cell proliferation. Format: cell-based. The settings on record: HNT-34, 72 hours; read-out: Cellular proliferation inhibition IC50. As for the experimental part: as §1, §2
In experiment [1] the test system is MV-4-11 subcutaneous transplant tumor. Description: In vivo efficacy in MV-4-11 subcutaneous transplant tumors. The arrangement: species or system SCID mice. The settings on record: tumor volume on the 27th day. As for the experimental part: Test Example 4: Compound's In Vivo Efficacy in MV-4-11 Subcutaneous Transplant Tumors Experimental method: Human acute monocytic leukemia cell line MV-4-11 was used to construct a subcutaneous transplant tumor model in SCID mice. Grouping: solvent group, reference compound (IV: 2 mg/kg, Day 0-12; IP: 20 mg/kg, Day 13-26) group, 5-17 and 5-22 (IV: 0.5 mg/kg, Day 0-12; IP: 10 mg/kg, Day 13-26), with 5 animals in each group, once a day. The tumor volume on the 27th day was measured and the tumor inhibition rate was calculated. Tumor inhibition rate (%)=[(tumor volume in solvent group−tumor volume in drug group)/tumor volume in solvent group]×100%

Where [2] appears, read: IV 0.5 mg/kg Day 0-12, IP 10 mg/kg Day 13-26, once a day.

Like-named read-outs stand apart in the source and are kept apart here.

T1 sequence (P15170 whole entry): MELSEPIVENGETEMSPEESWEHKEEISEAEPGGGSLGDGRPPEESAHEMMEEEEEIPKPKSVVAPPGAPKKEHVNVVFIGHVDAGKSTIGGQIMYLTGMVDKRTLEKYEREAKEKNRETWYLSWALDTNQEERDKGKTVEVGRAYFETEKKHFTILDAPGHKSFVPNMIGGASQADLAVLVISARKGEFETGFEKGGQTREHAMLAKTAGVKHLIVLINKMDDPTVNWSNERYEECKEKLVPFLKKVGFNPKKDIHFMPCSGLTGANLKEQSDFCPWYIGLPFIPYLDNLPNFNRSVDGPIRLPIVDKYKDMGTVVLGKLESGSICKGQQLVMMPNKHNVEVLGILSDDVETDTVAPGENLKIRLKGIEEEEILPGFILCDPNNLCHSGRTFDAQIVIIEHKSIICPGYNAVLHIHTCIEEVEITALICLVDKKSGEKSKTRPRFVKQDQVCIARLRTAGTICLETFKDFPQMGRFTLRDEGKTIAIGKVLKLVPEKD
T1 sequence (Q96SW2 whole entry): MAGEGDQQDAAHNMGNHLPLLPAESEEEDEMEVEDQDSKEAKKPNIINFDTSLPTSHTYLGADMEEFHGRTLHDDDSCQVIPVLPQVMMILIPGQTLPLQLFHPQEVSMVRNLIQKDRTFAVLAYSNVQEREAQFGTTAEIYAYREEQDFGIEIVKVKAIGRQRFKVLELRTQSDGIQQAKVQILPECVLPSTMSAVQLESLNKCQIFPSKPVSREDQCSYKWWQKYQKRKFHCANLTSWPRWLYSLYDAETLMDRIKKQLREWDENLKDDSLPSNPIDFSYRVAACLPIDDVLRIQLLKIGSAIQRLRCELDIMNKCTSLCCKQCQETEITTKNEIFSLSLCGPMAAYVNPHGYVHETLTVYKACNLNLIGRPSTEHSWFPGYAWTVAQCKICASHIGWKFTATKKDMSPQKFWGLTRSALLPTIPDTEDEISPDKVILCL
T1 sequence (Q16531 whole entry partner): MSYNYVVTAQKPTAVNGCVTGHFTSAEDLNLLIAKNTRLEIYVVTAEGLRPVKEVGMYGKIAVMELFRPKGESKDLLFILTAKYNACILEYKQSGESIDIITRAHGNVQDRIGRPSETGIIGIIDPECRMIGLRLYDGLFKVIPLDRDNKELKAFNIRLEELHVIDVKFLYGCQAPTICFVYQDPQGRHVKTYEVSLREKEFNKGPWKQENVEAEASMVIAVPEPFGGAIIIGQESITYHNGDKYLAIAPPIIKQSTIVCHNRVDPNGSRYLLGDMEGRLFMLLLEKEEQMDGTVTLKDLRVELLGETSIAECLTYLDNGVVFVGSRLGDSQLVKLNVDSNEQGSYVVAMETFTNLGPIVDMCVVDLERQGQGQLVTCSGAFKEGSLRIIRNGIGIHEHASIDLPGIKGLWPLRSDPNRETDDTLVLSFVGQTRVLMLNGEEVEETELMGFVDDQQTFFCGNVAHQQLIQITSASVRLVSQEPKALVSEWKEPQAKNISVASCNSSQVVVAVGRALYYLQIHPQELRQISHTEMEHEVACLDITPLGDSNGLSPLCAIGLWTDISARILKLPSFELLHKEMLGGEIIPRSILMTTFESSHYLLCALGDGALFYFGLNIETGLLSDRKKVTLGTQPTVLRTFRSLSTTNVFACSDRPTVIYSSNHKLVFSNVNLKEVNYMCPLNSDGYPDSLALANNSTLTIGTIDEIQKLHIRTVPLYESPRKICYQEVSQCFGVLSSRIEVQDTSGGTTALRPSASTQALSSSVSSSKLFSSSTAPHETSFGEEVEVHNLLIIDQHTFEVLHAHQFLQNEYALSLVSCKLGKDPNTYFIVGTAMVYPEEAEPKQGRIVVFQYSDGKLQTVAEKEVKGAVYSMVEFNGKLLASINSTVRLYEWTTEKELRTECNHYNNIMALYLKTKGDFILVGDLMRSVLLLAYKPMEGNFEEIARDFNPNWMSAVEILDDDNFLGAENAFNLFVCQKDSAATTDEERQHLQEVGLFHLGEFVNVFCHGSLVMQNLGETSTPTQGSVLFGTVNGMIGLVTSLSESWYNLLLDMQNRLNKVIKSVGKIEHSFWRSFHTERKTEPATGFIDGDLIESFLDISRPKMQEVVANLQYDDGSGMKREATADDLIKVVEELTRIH

As to `CC(C)C1CC[C@H](C)C[C@@H]1OC(=O)N[C@H](C(=O)NCc1ccc2c(c1)CN(C1CCC(=O)NC1=O)C2=O)c1ccccc1` (stereo partly shown) [Compound 4-175], at GSPT1 protein, the inhibition at 0.1 µM worked out at 93% and the inhibition at 10 µM was found to be 90%. Moreover, in the experiment with Jeko-1 cells, the IC50 came out at 0.03 nM.

Regarding `CC(C)(C)OC(=O)NCC(C(=O)NCc1ccc2c(c1)CN(C1CCC(=O)NC1=O)C2=O)c1ccc(Cl)cc1` (stereo not shown) [Compound 5-41, Tert butyl (2-(4-chlorophenyl)-3-((2-(2,6-dioxypiperidin-3-yl)-1-oxoisoindoline-5-yl)methyl)amino)-3-oxopropyl) carbamate], the inhibition at 0.1 µM on GSPT1 protein (100 nM, Jeko-1 cells, 24 hours) was determined as 96.9%. For the same compound, the inhibition at 10 µM at GSPT1 protein (10 μM, Jeko-1 cells, 24 hours) was determined as 96.7%. The IC50 in the experiment with Jeko-1 cells was 0.04 nM.

For the compound `CC(C)OC(=O)N[C@H](Cc1ccccc1)C(=O)NCc1ccc2c(c1)CN(C1CCC(=O)NC1=O)C2=O` (stereo partly drawn) [Compound 5-22, Isopropyl ((2R)-1-((2-(2,6-dioxypiperidin-3-yl)-1-oxoisoindolin-5-yl)methyl)amino)-1-oxo-3-phenylprop-2-yl) carbamate], the inhibition at 0.1 µM on GSPT1 protein worked out at 77.7%. In addition, the inhibition at 10 µM at GSPT1 protein is 95.7%. Moreover, the figures for the IC50 with HL-60 cells, with HNT-34 cells and in the experiment on Jeko-1 cells were 18.6 nM, 21.3 nM and 0.6 nM, respectively. Moreover, the “Tumor inhibition rate (%)” value in experiment [1] (setting [2]) came to 99.8%.

In the case of `CN(C(=O)OC1CCCC1)[C@H](C(=O)NCc1ccc2c(c1)CN(C1CCC(=O)NC1=O)C2=O)c1ccccc1` (stereo partly drawn) [Compound 5-36, Cyclopentyl ((1S)-2-((2-(2,6-dioxypiperidin-3-yl)-1-oxoisoindoline-5-yl)methyl)amino)-2-oxo-1-phenylethyl) (methyl) carbamate], at GSPT1 protein, the inhibition at 0.1 µM was 97% and the inhibition at 10 µM was found to be 97%. Also, in the experiment with Jeko-1 cells, the IC50 is 1 nM.

In the case of `CC(C)(C)OC(=O)NC(C(=O)NCc1ccc2c(c1)CN(C1CCC(=O)NC1=O)C2=O)c1ccccc1F` (stereo not shown) [Compound 5-5, Tert butyl (2-((2-(2,6-dioxypiperidin-3-yl)-1-oxoisoidoline-5-yl)methyl)amino)-1-(2-fluorophenyl)-2-oxoethyl) carbamate], on GSPT1 protein (100 nM, Jeko-1 cells, 24 hours), the inhibition at 0.1 µM was determined as 100%. Further, the inhibition at 10 µM at GSPT1 protein (10 μM, Jeko-1 cells, 24 hours) amounted to 100%. The IC50 in the experiment on Jeko-1 cells is 0.2 nM.

On to `O=C1CCC(N2Cc3cc(CNC(=O)C(F)(F)c4ccc(Cl)cc4)ccc3C2=O)C(=O)N1` (stereo not shown) [Reference compound, reference compound], for which the “Tumor inhibition rate (%)” value in experiment [1] (IV 2 mg/kg Day 0-12, IP 20 mg/kg Day 13-26, once a day) came to 28.3%.

`O=C1CCC(N2Cc3cc(CNC(=O)[C@@H](NC(=O)OC4CCCC4)c4ccccc4)ccc3C2=O)C(=O)N1` (stereo partly drawn) [Compound 4-159, Cyclopentyl (1S)-2-((2-(2,6-dioxypiperidin-3-yl)-1-oxoisoindoline-5-yl)methyl)amino)-2-oxo-1-phenylethyl) carbamate]: at GSPT1 protein, the inhibition at 0.1 µM was determined as 93% and the inhibition at 10 µM amounted to 99%. For the same compound, the IC50 in the experiment on Jeko-1 cells amounted to 0.02 nM.

With `CC(C)(C)OC(=O)N[C@H](C(=O)NCc1ccc2c(c1)CN(C1CCC(=O)NC1=O)C2=O)c1ccccc1Cl` (stereo partly drawn) [Compound 5-17, Tert butyl ((1S)-1-(2-chlorophenyl)-2-((2-(2,6-dioxopyridin-3-yl)-1-oxoisoidoline-5-yl)methyl)amino)-2-oxoethyl) carbamate], the inhibition at 0.1 µM at GSPT1 protein (100 nM, Jeko-1 cells, 24 hours) was 94.2%. Besides, the inhibition at 10 µM on GSPT1 protein (10 μM, Jeko-1 cells, 24 hours) was 95.6%. For the same compound, the IC50 in the experiment with HL-60 cells was 4.2 nM; in the experiment with HNT-34 cells, 3.2 nM; in the experiment on Jeko-1 cells it was 0.1 nM. For the same compound, the “Tumor inhibition rate (%)” value in experiment [1] (setting [2]) is 99.6%.

In the case of `CC(C)(C)OC(=O)N[C@@H](Cc1ccccc1)C(=O)NCc1ccc2c(c1)CN(C1CCC(=O)NC1=O)C2=O` (stereo partly drawn) [Compound 5-37, Tert butyl ((2S)-1-(2-(2,6-dioxypiperidin-3-yl)-1-oxoisoindoline-5-yl)methyl) amino)-1-oxo-3-phenylprop-2-yl) carbamate], at GSPT1 protein (100 nM, Jeko-1 cells, 24 hours), the inhibition at 0.1 µM came to 97.8%. Also, the inhibition at 10 µM on GSPT1 protein (10 μM, Jeko-1 cells, 24 hours) stood at 99.5%. Also, the IC50 in the experiment on Jeko-1 cells turned out to be 0.6 nM.

Consider `CC(C)(C)OC(=O)N[C@H](C(=O)NCc1ccc2c(c1)CN(C1CCC(=O)NC1=O)C2=O)c1ccccc1` (stereo partly drawn) [Compound 4-87, Tert butyl ((1S)-2-((2-(2,6-dioxopiperidin-3-yl)-1-oxoisoindolin-5-yl)methyl)amino)-2-oxo-1-phenylethyl) carbamate], for which the inhibition at 0.1 µM on GSPT1 protein (100 nM, Jeko-1 cells, 24 hours) is 89%. Further, the inhibition at 10 µM at GSPT1 protein (10 μM, Jeko-1 cells, 24 hours) is 93%. Besides, the IC50 in the experiment with Jeko-1 cells stood at 0.2 nM.

With `CC(C)(C)OC(=O)N[C@H](C(=O)NCc1ccc2c(c1)CN(C1CCC(=O)NC1=O)C2=O)c1ccc(F)c(Cl)c1` (stereo partly shown) [Compound 4-152, Tert butyl (1-(3-chloro-4-fluorophenyl)-2-((2-(2,6-dioxopyridin-3-yl)-1-oxoisoindoline-5-yl)methyl)amino)-2-oxoethyl) carbamate], the inhibition at 0.1 µM on GSPT1 protein (100 nM, Jeko-1 cells, 24 hours) is 93%. Further, the inhibition at 10 µM at GSPT1 protein (10 μM, Jeko-1 cells, 24 hours) was 82%. Also, the results for the IC50 with HL-60 cells, with HNT-34 cells and with Jeko-1 cells were 7.9 nM, 6.6 nM and 0.7 nM, respectively.

`CC(C)(C)OC(=O)NC(C(=O)NCc1ccc2c(c1)CN(C1CCC(=O)NC1=O)C2=O)c1ccc(Cl)c(Cl)c1` (stereo not shown) [Compound 4-151, Tert butyl (1-(3,4-dichlorophenyl)-2-((2-(2,6-dioxopyridin-3-yl)-1-oxoisoindoline-5-yl)methyl)amino)-2-oxoethyl) carbamate]: the inhibition at 0.1 µM on GSPT1 protein (100 nM, Jeko-1 cells, 24 hours) is 77%. Further, the inhibition at 10 µM at GSPT1 protein (10 μM, Jeko-1 cells, 24 hours) came out at 95%. The IC50 in the experiment on HL-60 cells is 11.6 nM; in the experiment on HNT-34 cells it was 7.8 nM; with Jeko-1 cells, 1.3 nM.

For the compound `CC(C)(C)OC(=O)N[C@H](C(=O)NCc1ccc2c(c1)CN(C1CCC(=O)NC1=O)C2=O)c1ccc(Cl)cc1` (stereo partly drawn) [Compound 4-150, Tert butyl ((1S)-1-(4-chlorophenyl)-2-((2-(2,6-dioxopyridin-3-yl)-1-oxoisoidoline-5-yl)methyl)amino)-2-oxoethyl) carbamate], the inhibition at 0.1 µM on GSPT1 protein (100 nM, Jeko-1 cells, 24 hours) amounted to 90%. Also, at GSPT1 protein (10 μM, Jeko-1 cells, 24 hours), the inhibition at 10 µM amounted to 99%. The IC50 in the experiment on HL-60 cells was determined as 9.2 nM; in the experiment with HNT-34 cells, 6.5 nM; in the experiment on Jeko-1 cells, 3.9 nM.

Take `CC(C)(C)OC(=O)N[C@@H](CC1CCCCC1)C(=O)NCc1ccc2c(c1)CN(C1CCC(=O)NC1=O)C2=O` (stereo partly drawn) [Compound 5-46, Tert butyl ((2S)-3-cyclohexyl-1-(2-((2,6-dioxopyridin-3-yl)-1-oxoisoidoline-5-yl)methyl)amino)-1-oxopropan-2-yl) carbamate]: the inhibition at 0.1 µM on GSPT1 protein (100 nM, Jeko-1 cells, 24 hours) is 90.6%. In addition, the inhibition at 10 µM at GSPT1 protein (10 μM, Jeko-1 cells, 24 hours) came to 93.6%. Also, the IC50 came to 8.3 nM with HL-60 cells, 3.7 nM in the experiment with HNT-34 cells and 0.2 nM with Jeko-1 cells.

With `CC(C)C[C@@H](NC(=O)OC(C)(C)C)C(=O)NCc1ccc2c(c1)CN(C1CCC(=O)NC1=O)C2=O` (stereo partly drawn) [Compound 4-123, Tert butyl ((2R)-1-((2-(2,6-dioxypiperidin-3-yl)-1-oxoidoline-5-yl)methyl)amino)-4-methyl-1-oxolan-2-yl) carbamate], the inhibition at 0.1 µM at GSPT1 protein (100 nM, Jeko-1 cells, 24 hours) worked out at 79.9%. At GSPT1 protein (10 μM, Jeko-1 cells, 24 hours), the inhibition at 10 µM turned out to be 92.7%. Moreover, the figures for the IC50 in the experiment on HL-60 cells and with HNT-34 cells were 28.9 nM and 26.9 nM, respectively.

Source of the values: patent US20250214960A1, “COMPOUNDS HAVING ACTIVITY OF DEGRADING GSPT1 AND APPLICATION THEREOF” (SHANGHAI MEIZER PHARMACEUTICALS CO., LTD., priority 2021, published 2025).
